# In PubChem BioAssay (NCI):
# Where “and” joins values, the source holds several entries; their conditions need not be identical. Identical values can stand only once.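 Method: 48-hour compound exposure of cells in 96-well plates, five concentrations, linear interpolation of endpoints. Abbreviation: GI50, concentration required for 50% inhibition of growth. TGI: total growth inhibition.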
# Tests used:
# Test in all cases: NCI tumour cell line growth inhibition, 48 h
# [1] = system: HCT-116 colon
# [2] = system: CCRF-CEM leukemia
# [3] = system: OVCAR-4 ovarian
# [4] = system: UACC-62 melanoma
# [5] = system: PC-3 prostate
# [6] = system: MOLT-4 leukemia
# [7] = system: SN12C renal
# [8] = system: COLO 205 colon
# [9] = system: IGROV1 ovarian
# [10] = system: SK-OV-3 ovarian
structure (smiles),measurement,setting,value
COc1ccc(C2C(=O)c3c(OC)cc(OC)cc3OC2c2cccnc2)cc1 (configuration not stated),TGI,[1],> 100 µM
same,TGI,[2],> 100 µM
same,TGI,[3],> 100 µM
same,TGI,[4],> 100 µM
same,TGI,[5],> 100 µM
same,TGI,[6],> 100 µM
same,TGI,[7],> 100 µM
same,TGI,[8],> 100 µM
same,TGI,[9],> 100 µM
same,TGI,[10],> 100 µM
CC(C)=CC[C@]12CCN(C)[C@H]1N(S(=O)(=O)c1ccccc1)c1ccccc12,TGI,[1],> 100 µM
same,TGI,[2],> 100 µM
same,TGI,[3],> 100 µM
same,TGI,[4],> 62 µM
same,TGI,[5],98.6 µM
same,TGI,[6],> 100 µM
same,TGI,[7],> 100 µM
same,TGI,[9],> 100 µM
same,TGI,[10],> 100 µM
COC(=O)c1cc(OC)c(OC)c(OC)c1-c1cc2c(cc1C=O)OCO2,TGI,[1],> 10 µM
same,TGI,[2],> 10 µM
same,TGI,[3],> 10 µM
same,TGI,[4],> 10 µM
same,TGI,[5],> 10 µM
same,TGI,[6],> 10 µM
same,TGI,[7],> 10 µM
same,TGI,[8],> 10 µM
same,TGI,[9],> 10 µM
same,TGI,[10],> 10 µM
Cc1nc2cc(Nc3ccccc3C(=O)O)ccc2s1,TGI,[1],> 100 µM
same,TGI,[2],> 100 µM
same,TGI,[3],> 100 µM
same,TGI,[4],> 100 µM
same,TGI,[6],> 100 µM
same,TGI,[7],> 100 µM
same,TGI,[8],> 100 µM
same,TGI,[9],> 100 µM
same,TGI,[10],> 100 µM
NC(=O)CC(N=Cc1nc(-c2ccccc2)oc1O)C(=O)O (configuration not stated),TGI,[1],> 100 µM
same,TGI,[2],> 100 µM
same,TGI,[3],> 100 µM
same,TGI,[4],> 100 µM
same,TGI,[8],> 100 µM
same,TGI,[9],> 100 µM
same,TGI,[10],> 100 µM
O=C1CSC(c2cccc(Cl)c2)N1c1ccc(-c2ccc(-n3c(-c4ccccc4)nc4ccccc4c3=O)cc2)cc1 (configuration not stated),TGI,[1],> 100 µM
same,TGI,[2],> 100 µM
same,TGI,[3],> 100 µM
same,TGI,[4],> 100 µM
same,TGI,[5],> 100 µM
same,TGI,[6],> 100 µM
same,TGI,[7],> 100 µM
same,TGI,[8],> 100 µM
same,TGI,[9],> 100 µM
same,TGI,[10],> 100 µM
C(=Nc1ccc(-c2nc3ccccc3s2)cc1)c1ccc[nH]1,TGI,[1],29.9 µM
same,TGI,[2],57.4 µM
same,TGI,[3],89.7 µM
same,TGI,[4],30.7 µM
same,TGI,[5],31.5 µM
same,TGI,[6],38.8 µM
same,TGI,[7],44.8 µM
same,TGI,[8],31.8 µM
same,TGI,[9],40.6 µM
same,TGI,[10],51.6 µM
O=C(O)/C=C/c1ccc2c(c1)CC1(Cc3ccccc3C1)C2,TGI,[1],51.4 µM
same,TGI,[2],> 100 µM
same,TGI,[3],> 100 µM
same,TGI,[4],> 100 µM
same,TGI,[5],> 100 µM
same,TGI,[6],> 100 µM
same,TGI,[7],> 100 µM
same,TGI,[8],52.3 µM
same,TGI,[9],> 100 µM
same,TGI,[10],> 100 µM
CC1(C)OC2OC(C(COS(=O)(=O)C(F)(F)F)N=[N+]=[N-])C(OC(=O)c3ccccc3)C2O1 (configuration not stated),TGI,[1],> 100 µM
same,TGI,[2],> 100 µM
same,TGI,[3],> 100 µM
same,TGI,[4],> 100 µM
same,TGI,[5],> 100 µM
same,TGI,[6],> 100 µM
same,TGI,[7],> 100 µM
same,TGI,[8],> 100 µM
same,TGI,[10],> 100 µM
CN(CCc1ccccn1)C(=S)N/N=C(\c1ccccc1)c1ccccn1,TGI,[1],2.02 µM
same,TGI,[2],> 100 µM
same,TGI,[3],2.23 µM
same,TGI,[4],2.04 µM
same,TGI,[5],6.67 µM
same,TGI,[6],7.26 µM
same,TGI,[7],15 µM
same,TGI,[8],17.3 µM
same,TGI,[9],1.57 µM
same,TGI,[10],2.19 µM
O=C(O)/C=C/c1c[nH]c(=O)[nH]c1=O,TGI,[1],> 500 µM
same,TGI,[2],> 316 µM
same,GI50,[3],> 500 µM
same,TGI,[3],> 500 µM
same,TGI,[4],> 500 µM
same,TGI,[6],> 281 µM
same,GI50,[7],> 500 µM
same,TGI,[7],> 500 µM
same,TGI,[8],> 500 µM
same,TGI,[9],> 500 µM
same,TGI,[10],> 500 µM
[N-]=[N+]=CC(=O)OCCCCl,TGI,[1],> 100 µM
same,TGI,[2],> 100 µM
same,TGI,[3],> 100 µM
same,TGI,[4],> 100 µM
same,TGI,[5],> 100 µM
same,TGI,[6],> 100 µM
same,TGI,[7],> 100 µM
same,TGI,[8],> 100 µM
same,TGI,[9],> 100 µM
same,TGI,[10],> 100 µM
CCn1c(CCl)nc2c1C(=O)c1ccccc1C2=O,TGI,[1],4.32 µM
same,TGI,[3],3.08 µM
same,TGI,[4],3.14 µM
same,TGI,[5],4.53 µM
same,TGI,[7],2.97 µM
same,TGI,[9],3.86 µM
same,TGI,[10],2.38 µM
CC(=O)NC1=NC(=O)/C(=C/c2ccc(/C=C3/C(=O)N=C(NC(C)=O)N3C)cc2)N1C,TGI,[1],> 100 µM
same,TGI,[3],> 100 µM
same,TGI,[4],> 100 µM
same,TGI,[6],> 100 µM
same,TGI,[7],> 100 µM
same,TGI,[8],> 100 µM
same,TGI,[9],> 100 µM
same,TGI,[10],> 100 µM
C[C@]12CC(c3ccccc3O1)C(C(=O)Nc1nc(C34CC5CC(CC(C5)C3)C4)cs1)C(=O)N2 (some centres not stated),TGI,[1],> 100 µM
same,TGI,[2],> 100 µM
same,TGI,[3],> 100 µM
same,TGI,[4],> 100 µM
same,TGI,[5],> 100 µM
same,TGI,[6],> 100 µM
same,TGI,[7],> 100 µM
same,TGI,[8],> 100 µM
same,TGI,[9],> 100 µM
same,TGI,[10],> 100 µM
NC(=S)N1N=C2c3ccccc3CC[C@H]2[C@@H]1c1ccc(Cl)cc1,TGI,[1],37.3 µM
same,TGI,[2],> 100 µM
same,TGI,[3],> 100 µM
same,TGI,[4],> 100 µM
same,TGI,[6],89.8 µM
same,TGI,[7],> 100 µM
same,TGI,[8],34.8 µM
same,TGI,[9],> 100 µM
same,TGI,[10],> 100 µM
Cc1cc(S(=O)(=O)Nc2n[nH]c(N)n2)c(Cl)cc1Cl,TGI,[1],> 10 µM
same,TGI,[2],> 10 µM
same,TGI,[3],> 10 µM
same,TGI,[4],> 10 µM
same,TGI,[5],> 10 µM
same,TGI,[6],> 10 µM
same,TGI,[7],> 10 µM
same,TGI,[8],> 10 µM
same,TGI,[9],> 10 µM
same,TGI,[10],> 10 µM
Cc1c2c(n(CC(c3ccccc3)c3ccccc3)c1C)NN=C(C#N)S2(=O)=O,TGI,[1],> 100 µM
same,TGI,[3],> 100 µM
same,TGI,[4],> 100 µM
same,TGI,[5],> 100 µM
same,TGI,[6],> 100 µM
same,TGI,[7],> 100 µM
same,TGI,[8],> 100 µM
same,TGI,[9],> 100 µM
same,TGI,[10],> 100 µM
CCC(C)C1=C(O)[N+]2([O-])Oc3ccc(-c4c(O)c(O)c(-c5ccc(OC(C)=O)cc5)c(OC(C)=O)c4OC(C)=O)cc3OC2(C(C)CC)C(=O)N1O (configuration not stated),TGI,[2],> 50 µM
same,TGI,[3],41.4 µM and 46.7 µM
same,TGI,[4],> 50 µM
same,TGI,[5],> 50 µM
same,TGI,[6],> 50 µM
same,TGI,[7],> 50 µM
same,TGI,[8],> 50 µM
same,TGI,[9],> 50 µM
same,TGI,[10],> 50 µM
COC1(CC[C@@H](C)COC2OC(CO)C(O)C(O)C2O)O[C@H]2C[C@H]3[C@@H]4CC=C5C[C@@H](OC6OC(CO)C(O)C(OC7OC(CO)C(O)C(O)C7O)C6OC6OC(C)C(O)C(O)C6O)CC[C@]5(C)[C@H]4CC[C@]3(C)[C@H]2[C@@H]1C (some centres not stated),TGI,[1],34.9 µM
same,TGI,[2],> 100 µM
same,TGI,[3],28.4 µM
same,TGI,[4],> 35.7 µM
same,TGI,[5],21.4 µM
same,TGI,[6],> 31.6 µM
same,TGI,[7],> 56 µM
same,TGI,[8],> 37.5 µM
same,TGI,[9],19.8 µM
same,TGI,[10],15 µM
O=c1[nH]c(NCc2ccc(Cl)cc2)nc2nc[nH]c12,TGI,[1],> 100 µM
same,TGI,[2],> 100 µM
same,TGI,[3],> 100 µM
same,TGI,[4],> 100 µM
same,TGI,[5],> 100 µM
same,TGI,[6],> 100 µM
same,TGI,[7],> 100 µM
same,TGI,[8],> 100 µM
same,TGI,[9],> 100 µM
same,TGI,[10],> 100 µM
